Measurements as given in patent publication US9278958B2, “Anti-cancer compounds” (KATHOLIEKE UNIVERSITEIT LEUVEN, priority 2012, dated 2016).
Read-outs that look alike come from different tables or passages of the source.

Experiments:
[1] = system: PC-3 (UZ) prostate cancer cells; assay: Cytostatic assay, PC-3 (UZ); assay type: cell-based; conditions: Table 4
In short: (§1)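 Each cell line grows in the presence of compound for 48 h to 96 h, the duration chosen per line, at 37° C in a humid CO2-regulated incubator. Seeding is 5-7.5×10^4 cells per well, and final counts come from a Coulter counter.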

[2] = system: PC3 (rega) prostate cancer cells; assay: Cytostatic assay, PC3 (rega); assay type: cell-based; conditions: Table 4
In short: as §1

[3] = system: 293T embryonic kidney cells; assay: Cytostatic assay, 293T; assay type: cell-based; conditions: Homo sapiens, HEK-293T; Table 3
In short: as §1

[4] = system: HL60, human leukemia cells; assay: Cytostatic assay, HL-60; assay type: cell-based; conditions: Table 2
In short: as §1

[5] = system: BAEC aortic endothelial cells; assay: Cytostatic assay, BAEC; assay type: cell-based, bovine; conditions: Bos taurus, Table 3
In short: as §1

Huh-7 hepatoma cells = assay: Cytostatic assay, Huh-7; assay type: cell-based; conditions: Homo sapiens, Table 4
In short: as §1

[6] = system: 22Rv1 (UZ) prostate cancer cells; assay: Cytostatic assay, 22Rv1 (UZ); assay type: cell-based; conditions: Homo sapiens, Table 4
In short: as §1

[7] = system: MCF-7 mammary carcinoma cells; assay: Cytostatic assay, MCF-7; assay type: cell-based; conditions: Homo sapiens, MCF7; Table 3
In short: as §1

[8] = system: protein synthesis in Raji cells; assay: Antimetabolic activity assay, [4,5-3H]leucine incorporation (protein synthesis), Raji; assay type: cell-based; conditions: Homo sapiens, incorporation into TCA-insoluble material
PLC/PRF/5 hepatoma cells = assay: Cytostatic assay, PLC/PRF/5; assay type: cell-based; conditions: Homo sapiens, Table 4
In short: as §1

[9] = system: Daudi, human B-lymphoma cells; assay: Cytostatic assay, Daudi; assay type: cell-based; conditions: Table 2
Description: (§2) To each well of a 96-well microtiter plate were added 5-7.5×10^4 cells and a given amount of the test compound. The cells were allowed to proliferate for 48 h to 96 h (depending on the nature of the cell line) at 37° C. in a humidified CO2-controlled atmosphere. At the end of the incubation period, the cells were counted in a Coulter Counter (Coulter Electronics Ltd, Harpenden Herts, United Kingdom).

[10] = system: broad variety of tumor cell lines; assay: Cytostatic assays, summary over the panel of cell lines (Tables 2-4); assay type: cell-based
Description: as §2

[11] = system: protein synthesis in CEM cells; assay: Antimetabolic activity assay, [4,5-3H]leucine incorporation (protein synthesis), CEM; assay type: cell-based; conditions: Homo sapiens, CCRF-CEM, incorporation into TCA-insoluble material
In short: (§3)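 Read-out: acid-insoluble radioactivity on glass fiber filters. Setup: 10^5 CEM cells/well, 1 μCi labelled precursor, compound at varying levels (5-fold dilutions), 20 hrs, 37° C, humidified CO2 atmosphere.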

[12] = system: HOS CD4+ osteosarcoma cells; assay: Cytostatic assay, HOS CD4+; assay type: cell-based; conditions: Homo sapiens; Table 3
Description: as §2

MT-2 cells = assay: Cytostatic assay, MT-2; assay type: cell-based; conditions: Homo sapiens, MT2; Table 2
In short: as §1

[13] = system: U87 CD4+/CXCR4+/CCR5+ glioma cells; assay: Cytostatic assay, U87 CD4+/CXCR4+/CCR5+; assay type: cell-based; conditions: Homo sapiens, Glioma cell; Table 3
Description: as §2

[14] = system: Raji, human B-lymphoma cells; assay: Cytostatic assay, Raji; assay type: cell-based; conditions: Table 2
In short: as §1

[15] = system: RNA synthesis in CEM cells; assay: Antimetabolic activity assay, [5-3H]uridine incorporation (RNA synthesis), CEM; assay type: cell-based; conditions: Homo sapiens, CCRF-CEM, incorporation into TCA-insoluble material
In short: as §3

[16] = system: DNA synthesis in CEM cells; assay: Antimetabolic activity assay, [CH3-3H]dThd incorporation (DNA synthesis), CEM; assay type: cell-based; conditions: Homo sapiens, CCRF-CEM, incorporation into TCA-insoluble material
In short: as §3

[17] = system: U937, human monocytic cells; assay: Cytostatic assay, U937; assay type: cell-based; conditions: U-937, Table 2
In short: as §1

C8166 cells = assay: Cytostatic assay, C8166; assay type: cell-based; conditions: Homo sapiens, Table 2
In short: as §1

Molt4/C8 cells = assay: Cytostatic assay, Molt4/C8; assay type: cell-based; conditions: Table 2
In short: as §1

[18] = system: FM3A mammary carcinoma cells; assay: Cytostatic assay, FM3A; assay type: cell-based, murine; conditions: Mus musculus, Table 3
In short: as §1

[19] = system: THP-1, human monocytic cells; assay: Cytostatic assay, THP-1; assay type: cell-based; conditions: Table 2
In short: as §1

[20] = system: HEL embryonic lung fibroblast cells; assay: Cytostatic assay, HEL; assay type: cell-based; conditions: Homo sapiens, Table 3
In short: as §1

[21] = system: HeLa cervix carcinoma cells; assay: Cytostatic assay, HeLa; assay type: cell-based, human; conditions: Homo sapiens; Table 3; read-out: Cytostatic activity (μM) Hela
In short: as §1

[22] = system: Caki-2 kidney carcinoma cells; assay: Cytostatic assay, Caki-2; assay type: cell-based; conditions: Homo sapiens, Table 3
In short: as §1

[23] = system: DU145 (UZ) prostate cancer cells; assay: Cytostatic assay, DU145 (UZ); assay type: cell-based; conditions: Homo sapiens, DU-145; Table 4
In short: as §1

L1210 cells = assay: Cytostatic assay, L1210; assay type: cell-based; conditions: Mus musculus, Table 2
In short: as §1

[24] = system: DNA synthesis in Raji cells; assay: Antimetabolic activity assay, [CH3-3H]dThd incorporation (DNA synthesis), Raji; assay type: cell-based; conditions: Homo sapiens, incorporation into TCA-insoluble material
HepG2C3A hepatoma cells = assay: Cytostatic assay, HepG2C3A; assay type: cell-based; conditions: Homo sapiens, HepG2/C3A; Table 4
In short: as §1

[25] = system: OST TK- osteosarcoma cells; assay: Cytostatic assay, OST TK-; assay type: cell-based; conditions: Homo sapiens; Table 3
In short: as §1

U87 glioma cells = assay: Cytostatic assay, U87; assay type: cell-based; conditions: Homo sapiens, U-87 MG; Table 3
In short: as §1

BPH-1 (UZ) = assay: Cytostatic assay, BPH-1 (UZ); assay type: cell-based; conditions: Homo sapiens, Table 4
In short: as §1

CEM cells = assay: Cytostatic assay, CEM; assay type: cell-based; conditions: Homo sapiens, CCRF-CEM
In short: as §1

HUT-78 cells = assay: Cytostatic assay, HUT-78; assay type: cell-based; conditions: Homo sapiens, HuT78; Table 2
In short: as §1

[26] = system: LNCaP (UZ) prostate cancer cells; assay: Cytostatic assay, LNCaP (UZ); assay type: cell-based; conditions: Homo sapiens, Table 4
In short: as §1

[27] = system: HT29 colorectal carcinoma cells; assay: Cytostatic assay, HT29; assay type: cell-based; conditions: Homo sapiens, HT-29; Table 3
In short: as §1

Sup T1 cells = assay: Cytostatic assay, Sup T1; assay type: cell-based; conditions: Homo sapiens, Table 2, read-out: Cytostatic activity (μM) Sup T 1
In short: as §1

[28] = system: RNA synthesis in Raji cells; assay: Antimetabolic activity assay, [5-3H]uridine incorporation (RNA synthesis), Raji; assay type: cell-based; conditions: Homo sapiens, incorporation into TCA-insoluble material
[29] = system: Caki-1 kidney carcinoma cells; assay: Cytostatic assay, Caki-1; assay type: cell-based; conditions: Homo sapiens, Table 3
In short: as §1

[30] = system: PNT1A (UZ) prostate cells; assay: Cytostatic assay, PNT1A (UZ); assay type: cell-based; conditions: Homo sapiens, Table 4
In short: as §1

MT-4 cells = assay: Cytostatic assay, MT-4; assay type: cell-based; conditions: Homo sapiens, MT4; Table 2
In short: as §1

[31] = Homo sapiens, HuT78, range for the seven compounds, MT-4 and HUT-78 cells, read-out: IC50 range, cytostatic activity against MT-4 and HUT-78 cells
[32] = range for the seven compounds against the 5 tumor cell lines, read-out: IC50 range, cytostatic activity against CEM, Molt4/C8, Sup T1, MT-2 and C8166 cells
[33] = Table 1a, read-out: IC50 μM (CEM)
[34] = Table 2, read-out: Cytostatic activity (μM) CEM

COC(=O)c1cc(CCc2ccccc2)sc1N [TR575, 2-Amino-5-phenethyl-thiophene-3-carboxylic acid methyl ester]
IC50 [1]: 0.51 ± 0.064 µM
IC50 [2]: 0.24 ± 0.19 µM
IC50 [3]: 45 ± 16 µM
IC50 [4]: 5.7 ± 7.2 µM
IC50 [5]: 26 ± 4.2 µM
IC50 (Huh-7 hepatoma cells): 1.7 ± 0.21 µM
IC50 [6]: 9.1 ± 0.35 µM
IC50 [7]: 36 ± 9.2 µM
IC50 [8]: 84 ± 6 µM
IC50 (PLC/PRF/5 hepatoma cells): 44 ± 2.1 µM
IC50 [9]: 38 ± 2.1 µM
IC50 [10, 31]: 8.5 to 60 µM
IC50 [10, 32]: 0.22 to 3.4 µM
IC50 [11]: 0.61 ± 0.04 µM
IC50 [12]: 48 ± 1.4 µM
IC50 (MT-2 cells): 0.79 ± 0.092 µM
IC50 [13]: 73 ± 3.5 µM
IC50 [14]: 50 ± 3.5 µM
IC50 [15]: 0.96 ± 0.37 µM
IC50 [16]: 3.1 ± 1 µM
IC50 [17]: 46 ± 7.1 µM
IC50 (C8166 cells): 2.2 µM
IC50 (Molt4/C8 cells): 1.2 ± 0.6 µM
IC50 [18]: 67 ± 18 µM
IC50 [19]: 38 ± 6.4 µM
IC50 [20]: 38 ± 12 µM
IC50 [21]: 38 ± 2.8 µM
IC50 [22]: 43 ± 4.2 µM
IC50 [23]: 5.4 ± 0.96 µM
IC50 (L1210 cells): 25 µM
IC50 [24]: ≥ 100 µM
IC50 (HepG2C3A hepatoma cells): 10 ± 5.2 µM
IC50 [25]: 9.8 ± 7.4 µM
IC50 (U87 glioma cells): 50 ± 3.5 µM
IC50 (BPH-1 (UZ)): 52 ± 1.4 µM
IC50 (CEM cells; [33]): 1.5 µM
IC50 (CEM cells; [34]): 1.5 ± 1.3 µM
IC50 (HUT-78 cells): 36 ± 13 µM
IC50 [26]: 0.35 ± 0.014 µM
IC50 [27]: 41 ± 2.8 µM
IC50 (Sup T1 cells): 1.1 ± 0.73 µM
IC50 [28]: > 100 µM
IC50 [29]: 6.5 ± 3.5 µM
IC50 [30]: 39 ± 3.5 µM
IC50 (MT-4 cells): 27 ± 0.71 µM

COC(=O)c1cc(CCc2ccc(OC)cc2C)sc1N [TR583, 2-Amino-5-[2-(4-methoxy-2-methyl-phenyl)-ethyl]-thiophene-3-carboxylic acid methyl ester]
IC50 [1]: 1.3 ± 0.071 µM
IC50 [2]: 0.57 ± 0.3 µM
IC50 [3]: 84 ± 23 µM
IC50 [4]: 4.9 ± 5.4 µM
IC50 [5]: 44 ± 22 µM
IC50 (Huh-7 hepatoma cells): 4.6 ± 0.28 µM
IC50 [6]: 21 ± 17 µM
IC50 [7]: 79 ± 30 µM
IC50 [8]: > 100 µM
IC50 (PLC/PRF/5 hepatoma cells): 62 ± 21 µM
IC50 [9]: 61 ± 1.4 µM
IC50 [10, 31]: 8.5 to 60 µM
IC50 [10, 32]: 0.22 to 3.4 µM
IC50 [11]: 1.9 ± 1.6 µM
IC50 [12]: 67 ± 6.4 µM
IC50 (MT-2 cells): 1.8 ± 0.64 µM
IC50 [13]: 48 ± 6.4 µM
IC50 [14]: 93 ± 11 µM
IC50 [15]: 1 ± 0.5 µM
IC50 [16]: 3.1 ± 0.3 µM
IC50 [17]: 40 ± 2.8 µM
IC50 (C8166 cells): 1.6 ± 0.95 µM
IC50 (Molt4/C8 cells): 0.27 ± 0.27 µM
IC50 [18]: 49 ± 9.9 µM
IC50 [19]: 32 ± 4.9 µM
IC50 [20]: 87 ± 19 µM
IC50 [21]: 105 ± 68 µM
IC50 [22]: ≥ 200 µM
IC50 [23]: 14 ± 1.2 µM
IC50 (L1210 cells): 248 ± 40 µM
IC50 [24]: > 100 µM
IC50 (HepG2C3A hepatoma cells): 13 ± 0.71 µM
IC50 [25]: 10 ± 6.9 µM
IC50 (U87 glioma cells): > 100 µM
IC50 (BPH-1 (UZ)): > 100 µM
IC50 (CEM cells; [33]): 1.5 µM
IC50 (CEM cells; [34]): 1.5 ± 0.28 µM
IC50 (HUT-78 cells): 39 ± 27 µM
IC50 [26]: 0.35 ± 0.067 µM
IC50 [27]: > 100 µM
IC50 (Sup T1 cells): 0.95 ± 0.64 µM
IC50 [28]: > 100 µM
IC50 [29]: 4.5 ± 3.8 µM
IC50 [30]: > 100 µM
IC50 (MT-4 cells): 60 ± 0.71 µM
